Measured values taken from patent US20260062422A1 (Halda Therapeutics OpCo, Inc., priority 2022, published 2026).
pIC50, pKi: −log10 of the molar value.

molecular target: T1, progesterone receptor ligand binding domain (LBD) (Homo sapiens, UniProt P06401); assay: FP assay (PolarScreen Progesterone Receptor Competitor Assay) for binding to progesterone receptor LBD; conditions: GST-tagged PR LBD, Fluormone tracer, fluorescence polarization, 2 hours; Table 17
T1 construct: GST-tagged PR LBD, Fluormone tracer, and compound were mixed; purchased Life Technologies A15905 or a15906
T1 sequence (P06401 679-913 limits assumed): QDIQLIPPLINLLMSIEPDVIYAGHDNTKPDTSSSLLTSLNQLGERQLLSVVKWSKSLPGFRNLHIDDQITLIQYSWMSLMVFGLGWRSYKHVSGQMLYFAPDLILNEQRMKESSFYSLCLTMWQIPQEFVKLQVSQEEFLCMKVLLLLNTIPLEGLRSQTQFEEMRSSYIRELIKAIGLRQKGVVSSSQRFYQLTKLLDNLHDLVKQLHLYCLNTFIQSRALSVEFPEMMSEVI
Experimental: Compounds were tested using the PolarScreen™ Progesterone Receptor Competitor Assay Kit (Life Technologies Cat #A15905 or a15906), as per the manufacturer's instructions. Briefly, GST-tagged PR LBD, Fluormone tracer, and compound were mixed and incubated for 2 hours at room temperature in the dark. Following incubation, the plates were spun at 3000×g for 30 seconds, then sealed with an optical adhesive cover, and fluorescence polarization was measured using appropriate excitation and emission filters with an EnVision Plate Reader (Perkin Elmer). Compound concentration vs. mP value were plotted in Prism (GraphPad). A four-parameter non-linear regression curve fit was applied to dose-response data to determine the half-maximal inhibitory concentration (IC50) for each test compound.

Row | pIC50 | Compound
1 | 6.30 to 7.30 | CCNC(=O)C[C@@H]1N=C(c2ccc(CCCN(C)c3ncc(C(=O)N[C@H]4C(C)(C)[C@H](Oc5ccc(C#N)c(Cl)c5)C4(C)C)cn3)cc2)c2c(sc(C)c2C)-n2c(C)nnc21 [Compound I-104]
2 | 6.30 to 7.30 | CCNC(=O)C[C@@H]1N=C(c2ccc(N3CCN(CC4CCN(c5ncc(C(=O)N[C@H]6C(C)(C)[C@H](Oc7ccc(C#N)c(Cl)c7)C6(C)C)cn5)CC4)CC3)cc2)c2c(sc(C)c2C)-n2c(C)nnc21 [Compound I-105, N-[3-(3-chloro-4-cyano-phenoxy)-2,2,4,4-tetramethyl-cyclobutyl]-2-[4-[[4-[4-[(9S)-9-[2-(ethylamino)-2-oxo-ethyl]-4,5,13-trimethyl-3-thia-1,8,11,12-tetrazatricyclo[8.3.0.02,6]trideca-2(6),4,7,10,12-pentaen-7-yl]phenyl]piperazin-1-yl]methyl]-1-piperidyl]pyrimidine-5-carboxamide]
3 | > 7.30 | CCNC(=O)C[C@@H]1N=C(c2ccc(N(C3CC3)C3CN(CC4CCN(c5ncc(C(=O)N[C@H]6C(C)(C)[C@H](Oc7ccc(C#N)c(Cl)c7)C6(C)C)cn5)CC4)C3)cc2)c2c(sc(C)c2C)-n2c(C)nnc21 [Compound I-129]
4 | > 7.30 | CCNC(=O)C[C@@H]1N=C(c2ccc(N(C)C3CC(OC4CCN(c5ncc(C(=O)N[C@H]6C(C)(C)[C@H](Oc7ccc(C#N)c(Cl)c7)C6(C)C)cn5)CC4)C3)cc2)c2c(sc(C)c2C)-n2c(C)nnc21 (some centres unmarked) [Compound I-130]
5 | 6.30 to 7.30 | Cc1sc2c(c1C)C(c1ccc(OC3CC4(CCN(c5ncc(C(=O)N[C@H]6C(C)(C)[C@H](Oc7ccc(C#N)c(Cl)c7)C6(C)C)cn5)CC4)C3)cc1)=NC(Cc1ncco1)c1nnc(C)n1-2 (some centres unmarked) [Compound I-166]
6 | > 7.30 | Cc1sc2c(c1C)C(c1ccc(OCCOC3CCN(c4ncc(C(=O)N[C@H]5C(C)(C)[C@H](Oc6ccc(C#N)c(Cl)c6)C5(C)C)cn4)CC3)cc1)=N[C@@H](CC(=O)OC(C)(C)C)c1nnc(C)n1-2 [Compound I-235, tert-butyl 2-((S)-4-(4-(2-((1-(5-(((1r,3r)-3-(3-chloro-4-cyanophenoxy)-2,2,4,4-tetramethylcyclobutyl)carbamoyl)pyrimidin-2-yl)piperidin-4-yl)oxy)ethoxy)phenyl)-2,3,9-trimethyl-6H-thieno[3,2-f][1,2,4]triazolo[4,3-a][1,4]diazepin-6-yl)acetate]

molecular target: T2, progesterone receptor (Homo sapiens, UniProt P06401); assay: PR Human Progesterone NHR Binding (Agonist Radioligand) Assay, T47D cytosol; conditions: T47D cytosolic fractions, 0.5 nM [3H]progesterone, 1 hour at 4° C., Table 16
T2 construct: host or cells: T47D cells (cytosolic fraction)
T2 sequence (P06401 1-933): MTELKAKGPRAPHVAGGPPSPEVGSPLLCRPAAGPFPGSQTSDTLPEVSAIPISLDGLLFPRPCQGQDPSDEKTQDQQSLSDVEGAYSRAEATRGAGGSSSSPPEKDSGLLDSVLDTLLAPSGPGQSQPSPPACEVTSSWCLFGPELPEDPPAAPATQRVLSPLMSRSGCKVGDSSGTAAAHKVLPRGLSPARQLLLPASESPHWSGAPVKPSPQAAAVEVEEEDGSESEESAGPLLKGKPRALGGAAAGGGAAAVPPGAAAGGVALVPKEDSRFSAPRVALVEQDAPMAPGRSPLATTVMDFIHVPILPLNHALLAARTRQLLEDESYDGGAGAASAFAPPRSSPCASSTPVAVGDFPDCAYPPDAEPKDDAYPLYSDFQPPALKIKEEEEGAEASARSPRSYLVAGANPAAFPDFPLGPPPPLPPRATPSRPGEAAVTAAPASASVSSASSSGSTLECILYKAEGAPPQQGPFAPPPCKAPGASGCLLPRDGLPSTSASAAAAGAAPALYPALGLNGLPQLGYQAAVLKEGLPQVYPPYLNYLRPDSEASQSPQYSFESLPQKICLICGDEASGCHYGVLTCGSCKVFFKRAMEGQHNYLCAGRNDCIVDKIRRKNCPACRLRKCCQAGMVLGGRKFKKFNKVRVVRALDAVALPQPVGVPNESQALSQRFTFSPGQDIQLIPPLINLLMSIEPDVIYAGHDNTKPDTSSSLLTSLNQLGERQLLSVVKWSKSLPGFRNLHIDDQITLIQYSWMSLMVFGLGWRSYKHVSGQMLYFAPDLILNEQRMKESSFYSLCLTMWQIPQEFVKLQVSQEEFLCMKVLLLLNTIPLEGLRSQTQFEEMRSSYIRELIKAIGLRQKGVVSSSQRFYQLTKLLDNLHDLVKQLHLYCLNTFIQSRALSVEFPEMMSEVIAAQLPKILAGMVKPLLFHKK
Experimental: Compounds were tested using the PR Human Progesterone NHR Binding (Agonist Radioligand) Assay, Cerep at Eurofins Discovery using a modified version of the protocol from Sarup et al. (Cancer Res 1988; 48:5071-5078). Briefly, cytosolic fractions of T47D cells were incubated with 0.5 nM [^3H]progesterone for 1 hour at 4° C. in the absence or presence of the test compound. Nonspecific binding was determined in the presence of 1 μM promegestone. Reactions were subjected to scintillation counting. Results are expressed as a percent inhibition of the control radioligand specific binding.

Row | pKi | Compound
7 | > 7.30 | CCNC(=O)C[C@@H]1N=C(c2ccc(OCC3CN(c4ncc(C(=O)N[C@H]5C(C)(C)[C@H](Oc6ccc(C#N)c(Cl)c6)C5(C)C)cn4)C3)cc2)c2c(sc(C)c2C)-n2c(C)nnc21 [Compound I-71]
8 | > 7.30 | CCNC(=O)C[C@@H]1N=C(c2ccc(N3CCC(OC4CCN(c5ncc(C(=O)N[C@H]6C(C)(C)[C@H](Oc7ccc(C#N)c(Cl)c7)C6(C)C)cn5)CC4)CC3)cc2)c2c(sc(C)c2C)-n2c(C)nnc21 [Compound I-114]
9 | > 7.30 | Cc1sc2c(c1C)C(c1ccc(OCCOC3CCN(c4ncc(C(=O)N[C@H]5C(C)(C)[C@H](Oc6ccc(C#N)c(Cl)c6)C5(C)C)cn4)CC3)cc1)=N[C@@H](CC(=O)OC(C)(C)C)c1nnc(C)n1-2 [Compound I-235, tert-butyl 2-((S)-4-(4-(2-((1-(5-(((1r,3r)-3-(3-chloro-4-cyanophenoxy)-2,2,4,4-tetramethylcyclobutyl)carbamoyl)pyrimidin-2-yl)piperidin-4-yl)oxy)ethoxy)phenyl)-2,3,9-trimethyl-6H-thieno[3,2-f][1,2,4]triazolo[4,3-a][1,4]diazepin-6-yl)acetate]
10 | > 7.30 | Cc1sc2c(c1C)C(c1ccc(N3CC(CC4CCN(c5ncc(C(=O)N[C@H]6C(C)(C)[C@H](Oc7ccc(C#N)c(Cl)c7)C6(C)C)cn5)CC4)C3)cc1)=N[C@@H](C)c1nnc(C)n1-2 [Compound I-270]
11 | > 7.30 | Cc1sc2c(c1C)C(c1ccc(N3CC(C4CCN(c5ncc(C(=O)N[C@H]6C(C)(C)[C@H](Oc7ccc(C#N)c(Cl)c7)C6(C)C)cn5)CC4)C3)cc1)=N[C@@H](C)c1nnc(C)n1-2 [Compound I-271]
12 | > 7.30 | Cc1sc2c(c1C)C(c1ccc(OC3CC4(C3)CC3(CCN(c5ncc(C(=O)N[C@H]6C(C)(C)[C@H](Oc7ccc(C#N)c(Cl)c7)C6(C)C)cn5)CC3)C4)cc1)=N[C@@H](Cc1ncco1)c1nnc(C)n1-2 [Compound I-283]
13 | > 7.30 | Cc1sc2c(c1C)C(c1ccc(CC3CC4(CCN(c5ncc(C(=O)N[C@H]6C(C)(C)[C@H](Oc7ccc(C#N)c(Cl)c7)C6(C)C)cn5)CC4)C3)cc1)=N[C@@H](C)c1nnc(C)n1-2 [Compound I-303]
14 | 6.30 to 7.30 | Cc1sc2c(c1C)C(c1ccc(CC3CC4(CCN(c5ncc(C(=O)N[C@H]6C(C)(C)[C@H](Oc7ccc(C#N)c(Cl)c7)C6(C)C)cn5)CC4)C3)cc1)=N[C@@H](C)c1nnc(C)n1-2 [Compound I-436]
